Assay results published in paper PMC8817233 (Journal of medicinal chemistry, 2021).
Entries after “also recorded” stand apart in the source; their conditions may differ. One block for each compound: values may come before it.

Tests used:
[1] = molecular target: T1, β-catenin/BCL9 PPI (Homo sapiens, UniProt P35222); experiment: AlphaScreen competitive inhibition assay of the β-catenin/BCL9 PPI; format: binding; conditions: for fold less potent than ZW4864 (β-catenin/BCL9 Ki): compared with ZW4864
T1 sequence (P35222 1-781): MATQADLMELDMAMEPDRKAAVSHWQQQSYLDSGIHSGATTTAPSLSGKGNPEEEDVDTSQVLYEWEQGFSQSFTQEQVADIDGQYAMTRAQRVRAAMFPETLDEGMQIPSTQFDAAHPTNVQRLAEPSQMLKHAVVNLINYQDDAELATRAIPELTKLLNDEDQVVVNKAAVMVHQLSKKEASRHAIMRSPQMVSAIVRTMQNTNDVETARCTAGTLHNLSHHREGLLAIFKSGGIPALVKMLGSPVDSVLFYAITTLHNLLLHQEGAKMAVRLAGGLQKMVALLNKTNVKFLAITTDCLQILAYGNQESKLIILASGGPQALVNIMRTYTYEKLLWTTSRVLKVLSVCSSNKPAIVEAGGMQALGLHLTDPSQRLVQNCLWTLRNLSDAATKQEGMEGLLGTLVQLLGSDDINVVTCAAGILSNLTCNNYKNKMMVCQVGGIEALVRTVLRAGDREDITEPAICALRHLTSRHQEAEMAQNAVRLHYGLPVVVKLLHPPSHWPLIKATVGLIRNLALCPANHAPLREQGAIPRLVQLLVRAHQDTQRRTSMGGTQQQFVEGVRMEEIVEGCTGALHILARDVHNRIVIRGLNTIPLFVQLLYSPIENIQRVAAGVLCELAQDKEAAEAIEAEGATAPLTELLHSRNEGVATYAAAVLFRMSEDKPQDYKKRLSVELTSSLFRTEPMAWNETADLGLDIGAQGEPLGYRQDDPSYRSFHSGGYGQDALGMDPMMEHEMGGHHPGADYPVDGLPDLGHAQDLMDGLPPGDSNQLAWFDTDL

[2] = system: Axin2 and cyclin D1 in SW480 and Wnt 3a-activated MDA-MB-231 cells; experiment: Western blot of Wnt target proteins; format: cell-based, human; conditions: SW480 and Wnt 3a-activated MDA-MB-231, 24 h
[3] = system: TNBC cells; experiment: Clonogenic assay; format: cell-based
[4] = system: normal mammary epithelial MCF10A cells; experiment: FACS annexin V/PI apoptosis, normal cells; format: cell-based, human; conditions: 72 h treatment
[5] = Hepatic microsome stability, human; format: in vitro ADME; conditions: liver microsomes, pH 7.4
[6] = Hepatic microsome stability, mouse; format: in vitro ADME; conditions: liver microsomes, pH 7.4
[7] = Mouse PK study; format: in vivo, C57BL/6 mice; conditions: p.o., 20 mg/kg
[8] = system: MDA-MB-231 cells; experiment: Scratch wound healing assay; format: cell-based; conditions: 10% serum, mitomycin 10 μg/mL
[9] = system: MDA-MB-231 cells; experiment: 3D spheroid BME cell invasion assay; format: cell-based; conditions: day 6
[10] = system: PDX 4013 tumors; experiment: PDX 4013 TNBC xenograft, tumor growth and tolerability; conditions: 90 mg/kg orally daily in saline, 5 days
[11] = system: β-catenin-expressing HEK293 cells; experiment: TOPFlash luciferase reporter assay, HEK293; format: cell-based; conditions: 200 μM, 24 h
[12] = molecular target: BCL9 HD2 (Homo sapiens) (UniProt O00512); conditions: cited from earlier work
[13] = molecular target: T2, purified full-length β-catenin (Homo sapiens, UniProt P35222); experiment: Streptavidin pull-down with purified protein; format: binding; conditions: Western blot, from 1 μM
T2 sequence (P35222 1-781): T1 sequence (P35222 1-781)

[14] = molecular target: T3, β-catenin in SW480 cell lysates (Homo sapiens, UniProt P35222); experiment: Streptavidin pull-down from cell lysates; format: binding; conditions: 10 μM
T3 sequence (P35222 1-781): T1 sequence (P35222 1-781)

[15] = molecular target: T4, β-catenin R1C (residues 138–781) (Homo sapiens, UniProt P35222); experiment: Streptavidin pull-down with β-catenin truncate; format: binding
T4 sequence (P35222 138-781): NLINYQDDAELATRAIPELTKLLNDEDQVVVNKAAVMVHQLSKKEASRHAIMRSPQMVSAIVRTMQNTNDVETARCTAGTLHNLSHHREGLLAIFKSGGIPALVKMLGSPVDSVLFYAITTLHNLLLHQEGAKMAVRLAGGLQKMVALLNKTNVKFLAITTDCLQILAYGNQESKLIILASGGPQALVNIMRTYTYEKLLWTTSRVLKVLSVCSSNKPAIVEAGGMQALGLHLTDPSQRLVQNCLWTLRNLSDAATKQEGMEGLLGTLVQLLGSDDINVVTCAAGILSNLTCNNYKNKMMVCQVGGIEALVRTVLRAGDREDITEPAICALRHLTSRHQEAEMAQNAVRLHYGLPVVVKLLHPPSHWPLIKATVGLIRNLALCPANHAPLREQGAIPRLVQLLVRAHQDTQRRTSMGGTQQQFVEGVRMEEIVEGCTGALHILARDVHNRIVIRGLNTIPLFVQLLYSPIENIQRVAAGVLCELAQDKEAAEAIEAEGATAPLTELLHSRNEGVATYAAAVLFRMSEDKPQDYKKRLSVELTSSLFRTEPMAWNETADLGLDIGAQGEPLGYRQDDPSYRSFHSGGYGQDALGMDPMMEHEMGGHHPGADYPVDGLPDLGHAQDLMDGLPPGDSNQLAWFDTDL

BCL9 HD2 (Homo sapiens), sequence (O00512 351-374): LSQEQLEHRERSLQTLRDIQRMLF

Compound: CC(C)(Oc1cccc(N2CCC[C@@H](C(=O)N(Cc3ccc(-c4cn[nH]c4)cc3)C3CC3)C2)c1)C(=O)N1CCNCC1.Cl [ZW4864, (R)-N-(4-(1H-Pyrazol-4-yl)benzyl)-N-cyclopropyl-1-(3-((2-methyl-1-oxo-1-(piperazin-1-yl)propan-2-yl)oxy)phenyl)piperidine-3-carboxamide]
expression of proteins Axin2 and cyclin D1 (Western blot) [2]: substantially decreased
colony formation [3]: inhibited colony formation
apoptosis (FACS annexin V/PI) [4]: sparing normal mammary epithelial MCF10A cells
microsomal CLint at 1 μM [5]: 18 µL/min/mg
half-life at 1 μM [6]: 9.6 min
CL [7]: 51.10 mL/min/kg
MDA-MB-231 cell migration [8]: suppressed MDA-MB-231 cell migration in a dose-dependent manner
3D spheroid cell invasion [9]: suppressed MDA-MB-231 cell invasion in a dose-dependent manner
body weight and toxicity [10]: no significant decrease in weight or major toxicity issues
tumor growth compared with vehicle [10]: a variation in tumor growth

Compound: CN1CCN(C(=O)C(C)(C)Oc2cccc(N3CCC[C@@H](C(=O)N(Cc4ccc(-c5cn[nH]c5)cc4)C4CC4)C3)c2)CC1 [compound 19, (R)-N-(4-(1H-Pyrazol-4-yl)benzyl)-N-cyclopropyl-1-(3-((2-methyl-1-(4-methylpiperazin-1-yl)-1-oxopropan-2-yl)oxy)phenyl)piperidine-3-carboxamide]
TOPFlash luciferase activity, in words [11]: did not show any activity

Compound: beta-catenin (from UniProt P35222)
Kd [12]: 470 nM

Compound: CC(C)(Oc1cccc(N2CCC[C@@H](C(=O)N(CCOCCOCCNC(=O)CCCC[C@@H]3SC[C@@H]4NC(=O)N[C@@H]43)Cc3ccc(-c4cn[nH]c4)cc3)C2)c1)C(=O)N1CCNCC1 [Biotin-ZW4864, (R)-N-(4-(1H-Pyrazol-4-yl)benzyl)-1-(3-((2-methyl-1-oxo-1-(piperazin-1-yl)propan-2-yl)oxy)phenyl)-N-(2-(2-(2-(5-((3aS,4S,6aR)-2-oxohexahydro-1H-thieno[3,4-d]imidazol-4-yl)pentanamido)ethoxy)ethoxy)ethyl)piperidine-3-carboxamide]
pull-down of purified full-length β-catenin [13]: bound with the purified full-length β-catenin in a concentration-dependent manner starting at 1 μM; also recorded: pulled down the full-length β-catenin at 1 μM
binding to β-catenin in SW480 cell lysates [14]: effectively bind with β-catenin in SW480 cell lysates
pull-down of β-catenin R1C ([15]; 10 μM): did not pull down β-catenin R1C
pull-down of β-catenin R1C ([15]; 50 μM): pulled down β-catenin R1C

More lines, now with the values ahead:

fold less potent than ZW4864 (β-catenin/BCL9 Ki) [1]: 89 fold
Compound: Cl.Cn1cc(-c2ccc(CN(C(=O)[C@@H]3CCCN(c4cccc(OC(C)(C)C(=O)N5CCNCC5)c4)C3)C3CC3)cc2)cn1 [compound 18, (R)-N-Cyclopropyl-1-(3-((2-methyl-1-oxo-1-(piperazin-1-yl)propan-2-yl)oxy)phenyl)-N-(4-(1-methyl-1H-pyrazol-4-yl)benzyl)piperidine-3-carboxamide]

fold more potent than 3 (β-catenin/BCL9 Ki) ([1]; compared with 3): 2 fold
Compound: CC(C)c1ccc(CN(C(=O)[C@@H]2CCCN(c3cccc(OC(C)(C)C(=O)N4CCNCC4)c3)C2)C2CC2)cc1.Cl [compound 7, (R)-N-Cyclopropyl-N-(4-isopropylbenzyl)-1-(3-((2-methyl-1-oxo-1-(piperazin-1-yl)propan-2-yl)oxy)phenyl)piperidine-3-carboxamide]

inhibitory affinity for β-catenin/BCL9 PPI, in words ([1]; AlphaScreen, values only in Figure 2B): maintained low μM inhibitory affinities
Compound: CCOCCN(Cc1ccc(-c2cn[nH]c2)cc1)C(=O)[C@@H]1CCCN(c2cccc(OC(C)(C)C(=O)N3CCNCC3)c2)C1.Cl [compound 22, (R)-N-(4-(1H-Pyrazol-4-yl)benzyl)-N-(2-ethoxyethyl)-1-(3-((2-methyl-1-oxo-1-(piperazin-1-yl)propan-2-yl)oxy)phenyl)piperidine-3-carboxamide]

microsomal CLint at 1 μM [5]: 24 µL/min/mg
half-life at 1 μM [6]: 7.7 min
Compound: CCN(Cc1ccc(-c2cn[nH]c2)cc1)C(=O)[C@@H]1CCCN(c2cccc(OC(C)(C)C(=O)N3CCNCC3)c2)C1.Cl [compound 21, (R)-N-(4-(1H-Pyrazol-4-yl)benzyl)-N-ethyl-1-(3-((2-methyl-1-oxo-1-(piperazin-1-yl)propan-2-yl)oxy)phenyl)piperidine-3-carboxamide]

fold less potent than ZW4864 (β-catenin/BCL9 Ki) [1]: 10 fold
Compound: CC(C)(Oc1cccc(N2CCC[C@@H](C(=O)N(Cc3ccc(-c4ccn[nH]4)cc3)C3CC3)C2)c1)C(=O)N1CCNCC1.Cl [compound 17, (R)-N-(4-(1H-Pyrazol-5-yl)benzyl)-N-cyclopropyl-1-(3-((2-methyl-1-oxo-1-(piperazin-1-yl)propan-2-yl)oxy)phenyl)piperidine-3-carboxamide]
